Laboratory results as given in paper PMC6040651 (Pediatric blood & cancer, 2018).
Read-outs that look alike come from different tables or passages of the source.

Columns and labels:
[1] = Isotretinoin pharmacokinetics, single sample on cycle 1 day 14; conditions: human, serum, oral, 80 mg/m^2/dose, 4 hr after the last dose of isotretinoin in cycle 1 (80 mg/m^2/dose twice daily), 12 patients
[2] = test system: refractory/recurrent neuroblastoma; assay: Antitumor activity; type: in vivo, patients; conditions: vorinostat + isotretinoin
[3] = test system: xenografts from neuroblastoma cell lines; conditions: xenografts from four of six neuroblastoma cell lines; cited from earlier work
[4] = Phase I dose escalation and toxicity assessment; conditions: dose level 5 (430 mg/m^2/dose) + isotretinoin, n = 6
[5] = test system: histone acetylation in PBMC; conditions: cited from earlier work
[6] = test system: acetylated histone H3 in PBMC; assay: PBMC histone acetylation; type: in vivo, patients; conditions: for Mean percent change in histone acetylation (HA) levels from baseline: PBMC
[7] = Vorinostat serum pharmacokinetics, cycle 1
[8] = dosed continuously; pediatric relapsed solid tumors; cited from earlier work
[9] = all dose levels, n = 23/28, geometric mean (95% confidence interval), oral, cycle 1
[10] = dose level 1 (180 mg/m^2/dose), n = 6/7, geometric mean (95% confidence interval), oral, cycle 1
[11] = dose level 5—MTD (430 mg/m^2/dose), n = 9/12, geometric mean (95% confidence interval), oral, cycle 1

For `CC1=C(/C=C/C(C)=C/C=C/C(C)=C\C(=O)O)C(C)(C)CCC1` [isotretinoin, cis-13-retinoic acid], the concentration at 4 h ([1]; Median serum concentration) was 830 ng/mL and the concentration at 4 h ([1]; Serum concentration, range) was 190 to 1400 ng/mL.

For `O=C(CCCCCCC(=O)Nc1ccccc1)NO` [vorinostat, suberoylanilide hydroxamic acid], the “Objective responses (CR or PR)” value ([2]; all dose levels, 19 patients evaluable for response) was “No objective responses”, the “Patients who received 11–15 cycles of therapy” value ([2]; 7/29 patients) was 24% and the “Patients completing ≥4 cycles without tumor progression” value ([2]; 11 of the 29 patients) was 38%. The “6-month PFS rate” value ([2]; entire cohort of 29 patients) was 0.36 ± 0.09, the “Median PFS” value ([2]; entire cohort of 29 patients, 95% confidence interval 1.6–11.0 months) was 2.0 months and the “Event-free survival compared to control-treated mice” value [3] was “statistically significant prolongation in event-free survival”. For the same molecule, the “Number of patients with grade 3+ upper respiratory infection” value ([4]; all cycles) was 1, the “Number of patients with grade 3+ upper respiratory infection” value ([4]; first cycle) was 0 and the “Histone acetylation in PBMC” value ([5]; continuous vorinostat MTD (230 mg/m^2/dose)) was “only transient PBMC HA was observed”. The “Histone acetylation in PBMC” value ([5]; highest continuous dose level of vorinostat (300 mg/m^2/dose)) was “consistent PBMC HA”, the “Percent change from baseline in HA levels, dose level 5 compared to dose levels 1–4” value ([6]; 1 hr post treatment, P = 0.009, difference persisted at hours 6 and 24) was “significantly greater” and the “Mean percent change in histone acetylation (HA) levels from baseline” value (shortened to “Mean percent change”) ([6]; dose level 5, hour 1, 6 patients) was 18.5%. For the same molecule, the “Mean percent change” value ([6]; dose level 5, hour 6, 6 patients) was 21.9%, the “Mean percent change” value ([6]; dose level 5, hour 24, 5 patients) was 14.4% and the “Mean percent change” value ([6]; dose levels 1–4, hour 1, 7 patients) was “–3.9%”. The “Mean percent change” value ([6]; dose levels 1–4, hour 6, 5 patients) was “–2.9%”, the “Clearance (Cl F obs)” value [7, 9] was 151 (115, 197) l/hr and the Cmax [7, 9] was 428 (348, 526) ng/ml. The “Clearance (Cl F obs)” value [7, 10] was 152 (93, 250) l/hr, the t½ [7, 10] was 2.6 (1.7, 4.0) hr and the “Clearance (Cl F obs)” value ([7]; dose level 2 (230 mg/m^2/dose), n = 2/3, geometric mean (95% confidence interval), oral, cycle 1) was 181 (76, 427) l/hr. For the same molecule, the “Clearance (Cl F obs)” value ([7]; dose level 3 (300 mg/m^2/dose), n = 3/3, geometric mean (95% confidence interval), oral, cycle 1) was 129 (64, 260) l/hr, the “Clearance (Cl F obs)” value ([7]; dose level 4 (360 mg/m^2/dose), n = 3/3, geometric mean (95% confidence interval), oral, cycle 1) was 322 (159, 649) l/hr and the “Clearance (Cl F obs)” value [7, 11] was 118 (79, 177) l/hr. The t½ [7, 11] was 3.2 (2.3, 4.5) hr, the AUC(0-inf) ([7]; human, serum, oral) was 930 to 5780 ng·h/mL and the Cmax ([7]; human, serum, oral) was 158 to 980 ng/mL. It also gave a clearance ([7]; human, serum, oral) of 967 to 7250 mL/min, a half-life ([7]; human, serum, oral) of 1.2 to 10.1 h and an AUC(0-inf) ([7]; human, serum, po) of 2170 ng·h/mL. The AUC(0-inf) ([7]; human, serum, po, 180 mg/m2) was 1350 ng·h/mL, the AUC(0-inf) ([7]; human, serum, po, 230 mg/m2) was 1670 ng·h/mL and the half-life ([7]; human, serum, po, 230 mg/m2) was 2.4 h. The AUC(0-inf) ([7]; human, serum, po, 300 mg/m2) was 2640 ng·h/mL, the Cmax ([7]; human, serum, po, 300 mg/m2) was 552 ng/mL and the AUC(0-inf) ([7]; human, serum, po, 430 mg/m2) was 3250 ng·h/mL. The Cmax ([7]; human, serum, po, 430 mg/m2) was 587 ng/mL and the “MTD of vorinostat alone” value [8] was 230 mg/m^2/day.
